Data reported in ChEMBL document CHEMBL3639113, “TRPA1 antagonists” (2015).

Molecular target: Transient receptor potential cation channel subfamily A member 1 (Homo sapiens, UniProt O75762)
Assay: FLIPR Calcium Assay: Ca2+ influx was measured using a FLIPR calcium assay kit (R8033; Molecular Devices, Sunnyvale, Calif.). The Ca2+ indicator dye was dissolved in Hanks' balanced salt solution supplemented with 20 mM HEPES buffer (HBSS/HEPES) according to the manufacturer instructions. Prior to start of the assay, the medium was removed by aspiration, and cells were loaded with 100 μL Ca2+ dye for 2 to 3 hours at room temperature. […] (4×) solutions of the test compounds were prepared in HBSS/HEPES, and 50 μL were added to the cells at a delivery rate of 10 μL/sec. Changes in fluorescence were measured over time in a fluorometric imaging plate reader (FLIPR, Molecular Devices). Two additions were made over the course of an experimental run. For agonist experiments, assay buffer was added at the 10 s time point, followed by addition of agonist at the 3 minute 10 sec time point.

Chain of Transient receptor potential cation channel subfamily A member 1 (O75762 whole entry): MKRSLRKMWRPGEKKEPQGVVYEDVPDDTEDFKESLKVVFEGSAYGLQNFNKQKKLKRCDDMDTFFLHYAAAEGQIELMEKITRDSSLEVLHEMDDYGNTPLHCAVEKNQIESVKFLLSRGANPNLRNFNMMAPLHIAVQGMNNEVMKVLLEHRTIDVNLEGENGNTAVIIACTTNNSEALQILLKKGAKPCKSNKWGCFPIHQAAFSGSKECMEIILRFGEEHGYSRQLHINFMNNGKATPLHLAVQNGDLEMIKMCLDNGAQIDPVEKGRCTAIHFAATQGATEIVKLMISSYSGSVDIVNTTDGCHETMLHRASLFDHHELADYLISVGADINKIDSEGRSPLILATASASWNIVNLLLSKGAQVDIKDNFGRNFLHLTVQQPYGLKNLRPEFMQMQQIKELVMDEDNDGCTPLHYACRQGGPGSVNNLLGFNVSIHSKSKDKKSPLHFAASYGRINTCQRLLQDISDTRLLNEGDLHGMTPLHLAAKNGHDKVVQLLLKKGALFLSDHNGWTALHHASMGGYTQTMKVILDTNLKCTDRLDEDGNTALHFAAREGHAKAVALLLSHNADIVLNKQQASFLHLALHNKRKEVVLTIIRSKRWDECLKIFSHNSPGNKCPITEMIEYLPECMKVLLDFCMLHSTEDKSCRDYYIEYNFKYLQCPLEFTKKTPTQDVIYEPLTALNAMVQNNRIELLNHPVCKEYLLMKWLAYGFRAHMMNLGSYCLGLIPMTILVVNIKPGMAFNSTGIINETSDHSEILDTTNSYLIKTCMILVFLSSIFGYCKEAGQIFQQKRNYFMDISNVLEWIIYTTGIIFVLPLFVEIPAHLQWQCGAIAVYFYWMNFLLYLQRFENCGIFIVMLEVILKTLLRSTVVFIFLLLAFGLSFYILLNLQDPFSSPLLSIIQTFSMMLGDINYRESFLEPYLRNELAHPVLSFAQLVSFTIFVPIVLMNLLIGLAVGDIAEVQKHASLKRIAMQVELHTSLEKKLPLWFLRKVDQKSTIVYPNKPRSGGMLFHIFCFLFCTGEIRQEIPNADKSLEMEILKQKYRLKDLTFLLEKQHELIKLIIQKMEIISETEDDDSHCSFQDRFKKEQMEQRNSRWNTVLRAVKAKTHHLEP

Structure (SMILES) | IC50
CCC(=N\O)/C(C)=C/c1ccc(F)c(C#N)c1 | > 100 µM
CCC(=N\OC)/C(C)=C/c1ccc(F)cc1 | 8.3 µM
